We go through 22 compounds from ChEMBL document CHEMBL1133420, “Parallel synthesis of a series of subtype-selective NMDA receptor antagonists” (Bioorg Med Chem Lett, 2000).

Assay type in all cases: functional, cell-based, Oocyte
Experiment [1] has as its target Glutamate receptor ionotropic, NMDA 2A (Homo sapiens, UniProt Q05586+Q12879). The experiment in a line: Antagonistic activity against NR1A/2A receptors in frog oocytes.
Experiment [2] has as its target Glutamate receptor ionotropic, NMDA 2C (Homo sapiens, UniProt Q05586+Q14957). The experiment in a line: Antagonistic activity against NR1A/2C receptor in frog oocytes.
The target in experiment [3] is Glutamate receptor ionotropic, NMDA 2B (Homo sapiens, UniProt Q05586+Q13224). The experiment is described as follows: Antagonistic activity against NR1A/2B receptor in frog oocytes.

In general, IC50 refers to the point on the concentration scale where inhibition reaches its midpoint. Lower therefore signals inhibition by little substance.

Sequence of Glutamate receptor ionotropic, NMDA 2A (Q12879 whole entry, one chain of several): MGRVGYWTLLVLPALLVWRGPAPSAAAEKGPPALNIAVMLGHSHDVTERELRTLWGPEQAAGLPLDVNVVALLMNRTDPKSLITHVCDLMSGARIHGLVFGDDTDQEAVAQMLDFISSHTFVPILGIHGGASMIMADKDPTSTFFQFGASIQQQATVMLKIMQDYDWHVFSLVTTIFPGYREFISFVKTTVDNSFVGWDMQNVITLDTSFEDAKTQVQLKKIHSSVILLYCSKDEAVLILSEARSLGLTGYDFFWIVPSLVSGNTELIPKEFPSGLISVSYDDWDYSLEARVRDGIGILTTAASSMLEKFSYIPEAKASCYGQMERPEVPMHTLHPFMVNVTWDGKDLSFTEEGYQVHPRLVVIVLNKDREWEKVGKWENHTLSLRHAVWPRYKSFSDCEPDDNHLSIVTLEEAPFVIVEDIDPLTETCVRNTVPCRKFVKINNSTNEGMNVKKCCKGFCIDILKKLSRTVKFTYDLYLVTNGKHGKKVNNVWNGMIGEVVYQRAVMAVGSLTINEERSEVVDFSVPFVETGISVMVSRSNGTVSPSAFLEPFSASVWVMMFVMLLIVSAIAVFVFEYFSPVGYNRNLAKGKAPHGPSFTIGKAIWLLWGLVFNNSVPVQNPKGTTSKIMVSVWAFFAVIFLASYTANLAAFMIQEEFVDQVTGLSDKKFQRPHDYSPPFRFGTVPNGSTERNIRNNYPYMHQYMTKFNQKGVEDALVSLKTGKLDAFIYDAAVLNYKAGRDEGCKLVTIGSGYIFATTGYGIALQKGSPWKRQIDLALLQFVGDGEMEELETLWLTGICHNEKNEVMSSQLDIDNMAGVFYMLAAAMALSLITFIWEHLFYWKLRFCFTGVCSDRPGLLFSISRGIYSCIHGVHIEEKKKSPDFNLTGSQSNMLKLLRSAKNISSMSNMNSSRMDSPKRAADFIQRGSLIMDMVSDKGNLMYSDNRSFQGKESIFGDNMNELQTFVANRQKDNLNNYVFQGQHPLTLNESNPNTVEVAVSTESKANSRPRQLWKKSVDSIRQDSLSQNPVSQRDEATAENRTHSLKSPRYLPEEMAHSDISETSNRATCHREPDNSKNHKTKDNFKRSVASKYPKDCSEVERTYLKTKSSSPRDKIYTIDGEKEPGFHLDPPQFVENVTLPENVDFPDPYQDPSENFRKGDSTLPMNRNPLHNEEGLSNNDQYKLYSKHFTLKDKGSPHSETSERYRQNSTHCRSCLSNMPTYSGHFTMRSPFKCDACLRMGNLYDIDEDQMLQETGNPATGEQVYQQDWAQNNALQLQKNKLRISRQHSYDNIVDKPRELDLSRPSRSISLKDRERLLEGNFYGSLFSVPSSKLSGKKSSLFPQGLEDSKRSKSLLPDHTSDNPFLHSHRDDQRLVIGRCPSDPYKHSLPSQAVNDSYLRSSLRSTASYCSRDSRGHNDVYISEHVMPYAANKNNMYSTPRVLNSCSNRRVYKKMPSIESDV
Sequence of Glutamate receptor ionotropic, NMDA 2B (Q13224 whole entry, one chain of several): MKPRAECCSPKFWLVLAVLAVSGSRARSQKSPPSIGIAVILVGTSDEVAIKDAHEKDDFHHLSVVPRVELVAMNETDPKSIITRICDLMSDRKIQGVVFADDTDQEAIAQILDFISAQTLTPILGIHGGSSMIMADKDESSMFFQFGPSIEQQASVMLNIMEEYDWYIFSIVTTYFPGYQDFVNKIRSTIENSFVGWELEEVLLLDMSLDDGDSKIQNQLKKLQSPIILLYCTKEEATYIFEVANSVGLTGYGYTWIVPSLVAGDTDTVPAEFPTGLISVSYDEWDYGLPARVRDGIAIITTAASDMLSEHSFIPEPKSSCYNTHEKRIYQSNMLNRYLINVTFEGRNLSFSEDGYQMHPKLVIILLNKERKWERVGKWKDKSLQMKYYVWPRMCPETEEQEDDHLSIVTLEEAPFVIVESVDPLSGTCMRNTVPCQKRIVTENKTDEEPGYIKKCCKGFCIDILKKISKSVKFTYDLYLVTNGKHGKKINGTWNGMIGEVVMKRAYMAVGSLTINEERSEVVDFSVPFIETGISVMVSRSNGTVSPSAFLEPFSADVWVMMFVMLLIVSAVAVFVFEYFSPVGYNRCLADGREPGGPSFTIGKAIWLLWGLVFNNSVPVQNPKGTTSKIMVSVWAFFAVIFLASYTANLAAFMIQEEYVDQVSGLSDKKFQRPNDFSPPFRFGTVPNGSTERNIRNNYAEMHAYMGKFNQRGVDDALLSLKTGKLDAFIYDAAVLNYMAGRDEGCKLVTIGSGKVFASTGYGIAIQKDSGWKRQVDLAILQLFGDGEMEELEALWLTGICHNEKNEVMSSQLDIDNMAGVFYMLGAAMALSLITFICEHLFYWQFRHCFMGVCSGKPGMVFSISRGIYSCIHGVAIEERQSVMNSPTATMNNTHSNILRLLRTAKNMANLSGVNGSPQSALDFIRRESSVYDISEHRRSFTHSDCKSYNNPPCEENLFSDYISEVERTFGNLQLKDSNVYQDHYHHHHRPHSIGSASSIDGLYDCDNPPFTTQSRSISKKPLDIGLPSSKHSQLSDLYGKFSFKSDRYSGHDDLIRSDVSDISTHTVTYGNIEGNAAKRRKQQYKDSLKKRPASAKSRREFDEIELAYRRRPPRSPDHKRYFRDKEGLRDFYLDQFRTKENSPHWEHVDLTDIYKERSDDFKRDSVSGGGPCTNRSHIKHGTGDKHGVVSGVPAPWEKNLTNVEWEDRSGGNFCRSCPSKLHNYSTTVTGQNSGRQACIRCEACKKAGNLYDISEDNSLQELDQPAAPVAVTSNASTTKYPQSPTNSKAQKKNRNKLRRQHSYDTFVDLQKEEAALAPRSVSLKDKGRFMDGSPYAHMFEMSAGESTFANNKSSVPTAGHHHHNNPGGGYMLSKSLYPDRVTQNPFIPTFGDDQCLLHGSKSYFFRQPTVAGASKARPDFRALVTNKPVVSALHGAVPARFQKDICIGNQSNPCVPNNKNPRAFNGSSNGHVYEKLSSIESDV
Sequence of Glutamate receptor ionotropic, NMDA 2C (Q14957 whole entry, one chain of several): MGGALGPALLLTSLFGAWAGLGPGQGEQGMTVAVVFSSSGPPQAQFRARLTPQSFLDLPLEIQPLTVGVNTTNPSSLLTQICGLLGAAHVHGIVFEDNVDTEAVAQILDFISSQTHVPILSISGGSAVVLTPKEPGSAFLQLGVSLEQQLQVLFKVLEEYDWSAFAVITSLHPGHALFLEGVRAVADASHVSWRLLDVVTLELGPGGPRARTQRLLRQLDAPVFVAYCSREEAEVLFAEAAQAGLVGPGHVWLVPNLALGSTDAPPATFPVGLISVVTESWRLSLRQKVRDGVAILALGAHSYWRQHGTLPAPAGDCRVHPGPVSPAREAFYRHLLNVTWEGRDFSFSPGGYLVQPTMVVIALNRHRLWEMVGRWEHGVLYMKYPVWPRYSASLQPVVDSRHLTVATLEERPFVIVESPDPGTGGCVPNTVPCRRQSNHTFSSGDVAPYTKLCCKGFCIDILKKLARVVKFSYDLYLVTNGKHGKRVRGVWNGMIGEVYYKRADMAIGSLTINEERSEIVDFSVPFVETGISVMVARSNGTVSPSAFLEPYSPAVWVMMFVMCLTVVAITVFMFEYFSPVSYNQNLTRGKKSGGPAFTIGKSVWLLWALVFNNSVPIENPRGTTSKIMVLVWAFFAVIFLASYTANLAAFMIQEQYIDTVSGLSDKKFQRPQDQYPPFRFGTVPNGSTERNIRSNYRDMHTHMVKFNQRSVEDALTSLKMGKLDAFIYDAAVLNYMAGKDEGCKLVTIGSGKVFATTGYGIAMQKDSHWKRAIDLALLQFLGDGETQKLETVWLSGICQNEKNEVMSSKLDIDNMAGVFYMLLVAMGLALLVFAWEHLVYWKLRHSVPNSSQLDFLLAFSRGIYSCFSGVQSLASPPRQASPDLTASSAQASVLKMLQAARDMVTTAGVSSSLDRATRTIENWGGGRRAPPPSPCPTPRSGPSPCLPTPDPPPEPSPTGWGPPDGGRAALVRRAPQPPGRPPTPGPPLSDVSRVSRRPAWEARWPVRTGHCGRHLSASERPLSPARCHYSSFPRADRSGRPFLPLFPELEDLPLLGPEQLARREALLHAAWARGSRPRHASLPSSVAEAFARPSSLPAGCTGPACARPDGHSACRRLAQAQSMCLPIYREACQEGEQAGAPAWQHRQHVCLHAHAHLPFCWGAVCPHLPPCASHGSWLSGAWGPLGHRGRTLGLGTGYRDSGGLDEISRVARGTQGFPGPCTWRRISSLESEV

On to `c1ccc(CC2CCN(CCCSc3nc4ccccc4[nH]3)CC2)cc1`, for which the values for the IC50 in experiment [1], in experiment [2] and in experiment [3] were 64 µM, 51 µM and 1 µM, respectively.

As for `c1ccc(CC2CCN(CCSc3ncc[nH]3)CC2)cc1`, the IC50 is more than 100 µM in experiment [1], more than 100 µM in experiment [2] and 0.07 µM in experiment [3].

Regarding `c1ccc(CC2CCN(CCSc3nc[nH]n3)CC2)cc1`, the IC50 in experiment [1] was more than 100 µM; in experiment [2] it was more than 100 µM; in experiment [3] it was 0.13 µM.

As to `O=[N+]([O-])c1ccc2[nH]c(SCCN3CCC(Cc4ccccc4)CC3)nc2c1`, the IC50 was more than 100 µM in experiment [1], more than 100 µM in experiment [2] and 7.4 µM in experiment [3].

As to `c1ccc(CC2CCN(CCCSc3nnc[nH]3)CC2)cc1`, the IC50 in experiment [1] was 51 µM; in experiment [2], more than 100 µM; in experiment [3], 0.63 µM.

For the compound `c1ccc(CC2CCN(CCSc3nc4ncccc4[nH]3)CC2)cc1`, the IC50 was more than 100 µM in experiment [1], more than 100 µM in experiment [2] and 0.24 µM in experiment [3].

Consider `c1ccc(CC2CCN(CCSc3ccccc3)CC2)cc1`, for which the values for the IC50 in experiment [1], in experiment [2] and in experiment [3] were more than 100 µM, more than 100 µM and 0.93 µM, respectively.

On to `c1ccc(CC2CCN(CCCSc3ncc[nH]3)CC2)cc1`, for which the 50% inhibitory concentration (IC50) in experiment [1] was 77 µM; in experiment [2] it was more than 100 µM; in experiment [3], 0.61 µM.

Consider `Nc1nnc(SCCN2CCC(Cc3ccccc3)CC2)s1`, for which the IC50 in experiment [1] is more than 100 µM; in experiment [2], more than 100 µM; in experiment [3] it was 0.21 µM.

`c1ccc(CC2CCN(CCSc3nc4ccccc4[nH]3)CC2)cc1`: the concentration for half-maximal inhibition (IC50) in experiment [2] is more than 100 µM; in experiment [3] it was 0.38 µM.

In the case of `c1ccc(CC2CCN(CCCSc3ccccc3)CC2)cc1`, the IC50 was more than 100 µM in experiment [2] and 4.3 µM in experiment [3].

`Oc1ccc(C#CCCN2CCC(Cc3ccccc3)CC2)cc1`: the 50% inhibitory concentration (IC50) is more than 100 µM in experiment [1], more than 100 µM in experiment [2] and 0.1 µM in experiment [3].

Take `Cc1n[nH]c(SCCCN2CCC(Cc3ccccc3)CC2)n1`: the results for the IC50 in experiment [1], in experiment [2] and in experiment [3] were more than 100 µM, more than 100 µM and 1 µM, respectively.

On to `Cc1nnc(SCCN2CCC(Cc3ccccc3)CC2)s1`, for which the results for the IC50 in experiment [1], in experiment [2] and in experiment [3] were more than 100 µM, more than 100 µM and 4.8 µM, respectively.

`Nc1n[nH]c(SCCCN2CCC(Cc3ccccc3)CC2)n1`: the IC50 in experiment [1] is 77 µM; in experiment [2], more than 100 µM; in experiment [3], 0.63 µM.

Turning to `Cc1nnc(SCCCN2CCC(Cc3ccccc3)CC2)s1`, the IC50 in experiment [1] is more than 100 µM; in experiment [2], more than 100 µM; in experiment [3] it was 6.4 µM.

Take `c1ccc(CC2CCN(CCCSc3nc4ncccc4[nH]3)CC2)cc1`: the figures for the 50% inhibitory concentration (IC50) in experiment [1], in experiment [2] and in experiment [3] were more than 100 µM, more than 100 µM and 1.6 µM, respectively.

As to `Oc1ccc(SCCN2CCC(Cc3ccccc3)CC2)cc1`, the values for the IC50 in experiment [1], in experiment [2] and in experiment [3] were 35 µM, more than 100 µM and 0.1 µM, respectively.

For the compound `Cc1n[nH]c(SCCN2CCC(Cc3ccccc3)CC2)n1`, the values for the IC50 in experiment [1], in experiment [2] and in experiment [3] were more than 100 µM, more than 100 µM and 0.15 µM, respectively.

`O=[N+]([O-])c1ccc2nc(SCCCN3CCC(Cc4ccccc4)CC3)[nH]c2c1`: the IC50 was 61 µM in experiment [1], more than 100 µM in experiment [2] and 0.91 µM in experiment [3].

For the compound `Nc1nnc(SCCCN2CCC(Cc3ccccc3)CC2)s1`, the IC50 in experiment [1] was 73 µM; in experiment [2], more than 100 µM; in experiment [3] it was 0.56 µM.

For the compound `Nc1nnc(SCCN2CCC(Cc3ccccc3)CC2)[nH]1`, the figures for the IC50 in experiment [1], in experiment [2] and in experiment [3] were more than 100 µM, more than 100 µM and 0.035 µM, respectively.
